Source: patent US12121518B2, “PARP-1 and methods of use thereof” (The Board of Supervisors of Louisiana State University and …, priority 2017, dated 2024)

Tests used:
VCAM-1 and COX2 = experiment: TNF-α-induced VCAM-1 and COX2 expression in colon epithelial cells (immunoblot); format: cell-based, mouse; conditions: TNF-α-treated colon epithelial cells, 5 μM
Procedure: Referring to FIG. 1, for example, colon epithelial cells were treated with TNF-α for the indicated time intervals in the presence or absence 5 μM of the PARP inhibitor AZD2281.
Cell isolation, culture, treatments, RNA extraction, cDNA synthesis and quantitative PCR—Primary CEC were isolated essentially as described (29). The mouse colon adenocarcinoma (MC-38 or CT-26), Jurkat T, RAW264.7, or 3LL lung carcinoma cell lines were purchased from Kerafast (Boston, MA) or ATCC (Manassas, VA). Mouse embryonic fibroblasts were derived from WT, PARP-1^+/−, or PARP mice using standard protocols. CEC were serum-starved overnight in 0.5% FBS prior to treatment. […] Quantitative determination of gene expression levels using a 2-step cycling protocol was conducted on a MyIQ Cycler (Bio-Rad, Hercules, CA, USA). Relative expression levels were calculated using the 2[-Delta Delta C(T)] method. Quantities of all targets were normalized to the mouse β-actin gene.
Cell fractionation, protein extraction and immunoblot analysis—Tumor tissues or cells were harvested and homogenized in RIPA lysis buffer (Santa Cruz Biotechnology) containing a cocktail of protease and phosphatase inhibitors on ice. […] Protein expression signals developed by ECL (Pierce, ThermoFisher Scientific) were determined by a G:Box Gel Image Analysis System (Syngene, Cambridge, UK) equipped with the GeneSys image capture software.

[1] = system: AOM/DSS-induced colon tumorigenesis; experiment: AOM/DSS chronic inflammation-driven colon cancer mouse model; format: in vivo; conditions: AOM/DSS-treated WT mice; for colon tumor burden: vs vehicle
Procedure: The drug was administered twice weekly for the duration of the protocol. […] As stated above, the AOM/DSS colon cancer model is driven primarily by chronic inflammation; thus, we next assessed mice sera for inflammatory factors TNF-α, IL-6, and MCP-1, which are highly relevant to human colon carcinogenesis.
Tumor models, assessment of tumor burden and adoptive transfer—For the azoxymethane/Dextran Sulfate Sodium (AOM/DSS)-induced tumorigenesis model, six to eight weeks old WT, PARP-1^+/− or PARP-1^−/− mice received a single dose (10 mg/kg) of AOM, i.p., followed by 4 cycles of 1.25% DSS provided in drinking water. Each cycle consisted of a week of DSS water separated by 2 weeks of regular water. […] At week 22 after the start of the experimental protocol, mice were sacrificed by CO2 asphyxiation. Colons, spleens, and blood were collected for analysis. Colons were opened longitudinally and washed with PBS to assess the tumor burdens using a dissecting microscope. For the APC^Min-mediated model, APC^Min/+, APC^Min/+PARP-1^+/−, or APC^Min/+PARP-1^−/− male mice were sacrificed at 16 weeks of age. […] Sacrificed mice were processed as described above except that the tumor burden was assessed along the whole intestinal track. Tumors were counted and divided in groups lower than 2 mm, 2-4 mm, and tumors bigger than 4 mm in diameter.
Tissue processing, immunohistochemistry, immunofluorescence and cytokines measurement—Some tissues were fixed in buffered formalin (10%), paraffin-embedded, then sectioned. Serial sections were subjected to H&E staining, immunohistochemistry (IHC) or immunofluorescence, as described (33), with antibodies to PCNA (Novusbio, Littleton, CO), COX-2 (Santa Cruz Biotechnology, Santa Cruz, CA), ICAM-1 (Santa Cruz Biotechnology), CD8 (Santa Cruz Biotechnology), or Gr1 (eBioscience, San Diego, USA) as previously described (34). […] Cytokine levels were assessed for TNF-α (ELM-TNFα-1), IL-6 (ELM-IL-6-1), and MCP-1 (ELM-MCP1) by ELISA (all from RayBiotech, Norcross, GA) according to the manufacturer's instructions and recommendations.

O=C(c1cc(Cc2n[nH]c(=O)c3ccccc23)ccc1F)N1CCN(C(=O)C2CC2)CC1 [olaparib]
expression of inflammatory markers (VCAM-1 and COX2) (VCAM-1 and COX2): inhibits the expression of inflammatory markers | colon tumor burden ([1]; 5 mg/kg i.p. twice weekly): significantly reduced the tumor burden | colon tumor burden ([1]; 25 mg/kg i.p. twice weekly): significantly reduced the tumor burden | colitis (colonic mucosa, H&E) ([1]; 5 or 25 mg/kg): notable protection
